Results reported in US10781162B2 (UCL BUSINESS Ltd, priority 2016, dated 2020).

What was measured:
[1] = Method: The in vitro dissolution and aqueous solubility behaviour at 25° C. was also investigated for the DEA-TTM salts synthesised by routes A, B and C as outlined in Example 1.5 above (Almac Sciences, Northern Ireland).
[2] = In vitro dissolution and aqueous solubility study in distilled water
Method: The dissolution experiment was carried out in triplicate on both the diethyl tetrathiomolybdate salt and the ammonium tetrathiomolybdate salt.

[3] = H2S gas detection assay (H2S gas release in PBS); format: physicochemical; conditions: for quantity of H2S gas released under standard conditions: PBS, pH 7.4, 37° C., incubation 1 hour, FIG. 12A
From the text: A, B and C denote the synthetic route of manufacture of DEA-TTM, with respect to FIG. 6.
If the sample is drawn in the latter part of the 10-second bin, the second or third reading may be the highest. A direct correlation ([…], straight line model, r^2=0.992; see FIG. 11) was observed on comparing the peak H2S value against the sum of the washout readings (decay) over time (area under curve, AUC). As the time to washout and the sum of values therein are directly proportional to the peak quantity of gas initially detected, it is appropriate to consider only the peak H2S gas level to determine the total amount of H2S gas release.
Initial testing of DEA-TTM salts A, B and C was carried out under standard conditions (dissolution in PBS, pH 7.4, incubation for 1 hour). […] Acidic conditions are shown to favour sulfide release.

Compound | solubility in water at 25° C. [1] | solubility in distilled water [2] | dissolution time ([2]; distilled water) | thiol dependence of H2S release (increase, in words) ([3]; for reference) | quantity of H2S gas released under standard conditions ([3]; listed as salt B) | quantity of H2S gas released under standard conditions ([3]; listed as salt C)
[NH4+].[NH4+].[SH-].[SH-].[S]=[Mo]=[S] [ATTM, ammonium tetrathiomolybdate] | 2000 µg/mL | ca. 2 mg/ml | over 1 hour | six-fold increase | – | –
CC[NH2+]CC.CC[NH2+]CC.[S]=[Mo](=[S])([S-])[S-] [diethylamine tetrathiomolybdate] | – | – | – | – | released the least H2S gas | released the most H2S gas
